Measurements as given in paper PMC10901556, “Conservation of Affinity Rather Than Sequence Underlies a Dynamic Evolution of the Motif-Mediated p53/MDM2 Interaction in Ray-Finned Fishes” (Molecular Biology and Evolution, 2024).
Where “and” joins values, the source holds several entries; their conditions need not be identical. Equal values may be shown once. Read-outs that look alike come from different tables or passages of the source. One block for each substance: values may come before it. Where no end group is shown, it is not given here.

Legend:
D. rerio MDM2 = molecular target: T1, D. rerio MDM2 (Danio rerio, UniProt O42354); experiment: Isothermal titration calorimetry; type: binding; conditions: 25 °C; for TΔS / ΔH / Kd: ITC
T1 construct: NusA-TEV-His6-PreScission site (N, cleaved yes); made in house; host or cells: Escherichia coli BL21 (DE3)
T1 sequence (O42354 with tags, fused parts or gaps): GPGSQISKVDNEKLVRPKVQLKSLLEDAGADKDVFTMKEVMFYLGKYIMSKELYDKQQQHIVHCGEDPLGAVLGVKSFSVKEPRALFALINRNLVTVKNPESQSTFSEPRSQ
Protocol: For ITC experiments, a MicroCal iTC200 instrument (GE Healthcare) was used, and the experiments were performed at 25 °C. The MDM2 protein and p53TAD peptides were dialyzed against the experimental buffer prior to experiments to avoid buffer mismatch. The concentration of D. rerio MDM2 in the cell was 11 μM and the concentration of p53TADD.rerio^17–32 and p53TADD.rerio^10–75 in the syringe was 118 and 116 μM, respectively. Results were analyzed using the built-in software and a 2-state binding model was assumed.

[1] = molecular target: T2, MDM2H.sapiens SWIB domain (Homo sapiens, UniProt Q00987); experiment: Fluorescence polarization displacement assay; type: binding
T2 construct: NusA-TEV-His6-PreScission (N, cleaved yes); made in house; host or cells: Escherichia coli BL21 (DE3)

MDM2D.rerio SWIB domain [2] = molecular target: T3, MDM2D.rerio SWIB domain (Danio rerio, UniProt O42354); experiment: Fluorescence polarization displacement assay; type: binding
T3 construct: NusA-TEV-His6-PreScission (N, cleaved yes); made in house; host or cells: Escherichia coli BL21 (DE3)
T3 sequence (O42354 with tags, fused parts or gaps): T1 sequence (O42354 with tags, fused parts or gaps)

[3] = molecular target: MDM2 SWIB domain, Lepisosteus oculatus; experiment: Fluorescence polarization displacement assay; type: binding
[4] = molecular target: MDM2 SWIB domain, Maylandia zebra; experiment: Fluorescence polarization displacement assay; type: binding; conditions: for IC50 / Ki: M.zeb MDM2 2000 nM
[5] = molecular target: MDM2 SWIB domain, Channa argus; experiment: Fluorescence polarization displacement assay; type: binding; conditions: for IC50 / Ki: C.arg MDM2 1500 nM
human MDM2 = conditions: ref Åberg et al. (2018); read-out: KD (μM) p53TAD^full-length native (converted); cited from earlier work
Source text: Therefore, we expressed, purified, and subjected a longer p53TAD construct from D. rerio to binding experiments (Fig. 4a).

MDM2D.rerio SWIB domain [6] = molecular target: T3, MDM2D.rerio SWIB domain; conditions: ref Mihalič et al. 2023; cited from earlier work
Source text: Abstract The transcription factor and cell cycle regulator p53 is marked for degradation by the ubiquitin ligase MDM2. The interaction between these 2 proteins is mediated by a conserved binding motif in the disordered p53 transactivation domain (p53TAD) and the folded SWIB domain in MDM2. […] The interaction between the proteins is mediated by a conserved binding motif in the intrinsically disordered N-terminal transactivation domain (TAD) of p53 and a SWIB domain in MDM2 (Fig. 1). The interaction leads to MDM2-catalyzed ubiquitination and proteasomal degradation of p53. Phosphorylation of p53TAD increases affinity for the general transcriptional coactivators CBP/p300 a ...

[7] = labeled probe 15 nM, replicate 1, read-out: IC50 [M] (IT)
[8] = labeled probe 15 nM, replicate 3, read-out: IC50 [M] (IT)
[9] = average of the replicates, probe 15 nM, Kd for probe […], read-out: Ki [nM] Average
[10] = average of the replicates, probe 15 nM, Kd for probe […], read-out: Ki [µM] Average
[11] = calculated from IC50, Kd for probe […], probe 15 nM, replicate 1, read-out: Ki
[12] = calculated from IC50, Kd for probe […], probe 15 nM, replicate 2, read-out: Ki
[13] = calculated from IC50, Kd for probe […], probe 15 nM, replicate 3, read-out: Ki
[14] = mean of the replicates, probe 15 nM, read-out: IC50 [nM], mean of the replicates

Sequence of MDM2 SWIB domain, Channa argus (as listed by the source): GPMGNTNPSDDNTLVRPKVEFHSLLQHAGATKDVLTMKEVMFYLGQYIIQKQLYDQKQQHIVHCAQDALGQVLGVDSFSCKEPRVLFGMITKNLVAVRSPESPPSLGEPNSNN
Sequence of MDM2 SWIB domain, Lepisosteus oculatus (as listed by the source): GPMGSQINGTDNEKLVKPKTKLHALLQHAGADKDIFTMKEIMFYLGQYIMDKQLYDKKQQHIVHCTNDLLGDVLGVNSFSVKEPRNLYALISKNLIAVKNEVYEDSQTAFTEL
Sequence of MDM2 SWIB domain, Maylandia zebra (as listed by the source): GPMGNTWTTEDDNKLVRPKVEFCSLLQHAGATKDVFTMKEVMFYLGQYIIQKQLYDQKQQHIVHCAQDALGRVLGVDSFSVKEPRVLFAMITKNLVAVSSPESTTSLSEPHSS
T2 sequence (Q00987 with tags, fused parts or gaps): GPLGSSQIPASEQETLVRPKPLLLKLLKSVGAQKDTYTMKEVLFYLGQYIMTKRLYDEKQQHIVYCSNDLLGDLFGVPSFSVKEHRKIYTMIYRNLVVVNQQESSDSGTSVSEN

Substance: Ac-EFAELWEKNLISIQP (N-terminus assumed) [D.rer p53 17-32 (G1K]
N (ITC stoichiometry) (D. rerio MDM2; first replicate): 0.74±0.01
N (ITC stoichiometry) (D. rerio MDM2; second replicate): 0.76±0.01
TΔS (D. rerio MDM2; first replicate): 1.7 kcal/mol
ΔH (D. rerio MDM2; first replicate): -7.2 ± 0.1 kcal/mol
TΔS (D. rerio MDM2; second replicate): 1.2 kcal/mol
ΔH (D. rerio MDM2; second replicate): -7.6 ± 0.1 kcal/mol

Substance: Ac-SQEFAELWEKNL [D.rer p53 P2 short]
IC50 [1]: 31.8 µM
Ki [1]: 4.33 µM
IC50 (MDM2D.rerio SWIB domain [2]): 3.39e-05 M
Kd (MDM2D.rerio SWIB domain [2]): 3600 ± 300 nM

Kd ([3]; FP displacement of FITC-p53TADhuman^15–26 (15 nM) from MDM2 (1 μM), KD from IC50, 20 mM sodium phosphate pH 7.4, 150 mM NaCl, 1 mM TCEP): 0.085 ± 0.005 µM
IC50 ([3]; equals the mean of the replicates, read-out: IC50 [nM], mean): 2090 nM
Ki ([3]; mean of the replicates (n = 3 or 6), read-out: Ki [nM] Average): 84.7 nM
Ki ([3]; mean of the replicates (n = 3 or 6), read-out: Ki [µM] Average): 84.7 nM
IC50 ([3]; replicate 1, MDM2 1000 nM, labeled probe 15 nM, read-out: IC50 [M] (IT)): 2170 nM
Ki ([3]; replicate 1, calculated from IC50 with Kd for probe 78 nM, read-out: Ki): 90.7 nM
IC50 ([3]; replicate 2, MDM2 1000 nM, labeled probe 15 nM, read-out: IC50 [M] (IT)): 2140 nM
Ki ([3]; replicate 2, calculated from IC50 with Kd for probe 78 nM, read-out: Ki): 88.6 nM
IC50 ([3]; replicate 3, MDM2 1000 nM, labeled probe 15 nM, read-out: IC50 [M] (IT)): 1960 nM
Ki ([3]; replicate 3, calculated from IC50 with Kd for probe 78 nM, read-out: Ki): 74.9 nM
Substance: GPMGMADPEPEGLPLSQESFQELWNMVIVLHRAVPPENAQWPDLQSMLYTNELVPNAIDSLYEELEPHVSMPPQPMVSNPDGLAPSSST [L.ocu p53 full, expressed full-length spotted gar p53TAD]

Kd ([4]; FP displacement of FITC-p53TADhuman^15–26 (15 nM) from MDM2 (2 μM), KD from IC50, 20 mM sodium phosphate pH 7.4, 150 mM NaCl, 1 mM TCEP): 0.19 ± 0.02 µM
IC50 [4, 7]: 3.27e-06 M
IC50 ([4]; labeled probe 15 nM, replicate 2, read-out: IC50 [M] (IT)): 3.18e-06 M
IC50 [4, 8]: 2.72e-06 M
Ki [4, 9]: 188 nM
Ki [4, 10]: 190 nM
Ki [4, 11]: 218 nM
Ki [4, 12]: 206 nM
Ki [4, 13]: 140 nM
IC50 [4, 14]: 3.06e-06 M
Substance: GPMGMAEQGFEDLQLSQNLPFSQDSFKELWDQLPVAESLSVSLDTISAVNSSTTGHDETWRPDGTMDMFQLINDQQLAEHFDEKLFELPNDALPKDGVTPPAST [M.zeb p53 P1 full, expressed full-length zebra mbuna p53TAD paralog 1]

Substance: GPMGMAQNDSQEFAELWEKNLISIQPPGGGSCWDIINDEEYLPGSFDPNFFGNVLEEQPQPSTLPPTST* [D.rer p53 P2 full, expressed whole TAD region of D. rerio p53]
Kd (MDM2D.rerio SWIB domain [2]; FP displacement of FITC-p53TADhuman^15–26 (15 nM) from MDM2 (1 μM or 1.5 μM, both printed), KD from IC50, 20 mM sodium phosphate pH 7.4, 150 mM NaCl, 1 mM TCEP, read-out: KD): 49 ± 8 nM
Kd (MDM2D.rerio SWIB domain [2]; FP displacement, printed in nM (text, Fig. S4A), read-out: KD): 49 nM
fold higher affinity than p53TAD^15–27D.rerio (MDM2D.rerio SWIB domain [2]; ratio of KD values, FP displacement): more than 70 fold
IC50 (MDM2D.rerio SWIB domain [2]; read-out: IC50 [M] (IT)): 1.73e-06 M and 1.93e-06 M and 1.69e-06 M
IC50 (MDM2D.rerio SWIB domain [2]; read-out: IC50 [nM], mean of the replicates (cell without heading below the column)): 1.78e-06 M
Ki (MDM2D.rerio SWIB domain [2]; read-out: Ki): 42.6 nM and 65.1 nM and 39.2 nM
Ki (MDM2D.rerio SWIB domain [2]; read-out: Ki [nM] Average): 49 nM
Ki (MDM2D.rerio SWIB domain [2]; read-out: Ki [µM] Average): 49 nM
N (ITC stoichiometry) (D. rerio MDM2; first replicate): 0.79±0.01
N (ITC stoichiometry) (D. rerio MDM2; second replicate): 0.74±0.01
Kd (D. rerio MDM2; MDM2 11 μM in the cell, approximate value): ~0.1 µM
TΔS (D. rerio MDM2; first replicate): 1.7 kcal/mol
ΔH (D. rerio MDM2; first replicate): -7.8 ± 0.1 kcal/mol
Kd (D. rerio MDM2; one of two replicates, the first printed for this construct in Fig. S5 (replicate number not assignable)): 0.1 ± 0.02 µM
Kd (D. rerio MDM2; one of two replicates, the second printed for this construct in Fig. S5 (replicate number not assignable)): 0.1 ± 0.01 µM
TΔS (D. rerio MDM2; second replicate): 2.0 kcal/mol
ΔH (D. rerio MDM2; second replicate): -7.6 ± 0.1 kcal/mol

Substance: GPMGMMEEQGFESLPLSQDSFRELWESVVTPSISTIPPAPEVPQDTMYMMLMNDQVLADGFDEKLFELPPESSTKDGVVPPSST [C.arg p53 P1 full, expressed full-length northern snakehead p53TAD paralog 1]
IC50 [5, 7]: 1.82e-06 M
IC50 ([5]; labeled probe 15 nM, replicate 2, read-out: IC50): 1.47e-06 M
IC50 [5, 8]: 1.52e-06 M
Kd ([5]; FP displacement of FITC-p53TADhuman^15–26 (15 nM) from MDM2 (1.5 μM), KD from IC50, 20 mM sodium phosphate pH 7.4, 150 mM NaCl, 1 mM TCEP): 0.1 ± 0.03 µM
Ki [5, 9]: 98.6 nM
Ki [5, 10]: 98.6 nM
Ki [5, 11]: 153 nM
Ki [5, 12]: 65.5 nM
Ki [5, 13]: 77.8 nM
IC50 [5, 14]: 1.6e-06 M

Substance: GSQNDSQEFAELWEKNLISIQPPGGGSCWDIINDEEYLPGSFDPN [D.rer p53 P2 longer]
IC50 (MDM2D.rerio SWIB domain [2]): 1.64e-06 M

Substance: H.sap p53 full: expressed full-length human p53 transactivation domain
Kd (human MDM2): 0.1 µM

Substance: p53TADD.rerio (residues 15 to 26): peptide corresponding to the conserved binding motif in p53TADD.rerio, earlier study (KNLIIQPPGGGS; UniProt P79734 15-26, looked up, fragment)
affinity in binding assay (MDM2D.rerio SWIB domain [6]): no affinity
